“Also recorded” adds a separate entry of the source.
Columns and labels:
[1] = system: SOD mutant mice; experiment: Survival in the SOD mutant mouse model of ALS; format: in vivo
Description: The present study investigates the effects of SPM 927 to protect or to reduce impairments observed in this ALS model. For this purpose behavioral measurements and EMGs are performed in SOD-G93A mice overexpressing mutant human Cu, Zn SOD.
(§1) The transgenic mouse strain used for this study is G1H (Gurney et al., 1994). The animals begin to show signs of posterior limb weakness at around 3 months of age and die at 4 months.
(§2) 40 mice are included in the study and divided into 4 groups of 10 mice. • a SOD vehicle group • a SOD treated group (SPM 927 3 mg/kg) • a SOD treated group (SPM 927 10 mg/kg) • a SOD treated group (SPM 927 30 mg/kg)
(§3) Animals were weighed every day. The general status of the mice was checked daily, especially for the presence of tremor, for skin aspect and for muscle wasting. EMG testing was performed once every week, starting on D70 of age until the death of the animals. The survival rate and the interval from symptom onset until death were recorded.
The animals were treated from day 60 (before the beginning of the clinical signs) until the animal's death. The treatment was administered twice daily intraperitoneally.
A global analysis of the data was made using one factor or repeated measures analysis of variance (ANOVA). […]

[2] = system: SOD mutant mice; experiment: Grid test in SOD mutant mice; format: in vivo, mouse
Description: as §1, §2
(§4) • Rotarod test: this test evaluates the ability of the animal to stay on a rotating dowel allowing evaluation of motor coordination and proprioceptive sensitivity. The apparatus is a 3 cm diameter automated rod which turns at 12 rounds per minute (Bioseb, Paris, France). The rotarod test measures how long the mouse can maintain itself on the axle without falling. The test is stopped after an arbitrary limit of 120 s. Should the animal fall down before 120 s, the performance is recorded and two additional trials are performed. The mean time of 3 trials is calculated. […] The number of times the mice put their paws through the grid is counted and serves as a measure for motor coordination. • Hanging test: this test evaluates the ability of the animal to hang on a wire. […] The time needed by the animal to catch the string with its hindpaws is recorded (60 s maximum) during three consecutive trials. […]

[3] = system: SOD mutant mice; experiment: Hanging test in SOD mutant mice; format: in vivo, mouse; settings: twice daily intraperitoneally from day 60
Description: as §1, §2, §4

[4] = system: SOD mutant mice; experiment: Rotarod test in SOD mutant mice; format: in vivo, mouse; settings: twice daily intraperitoneally from day 60
Description: as §1, §2, §4

[5] = system: SOD mutant mice; experiment: Electromyographic recordings (compound muscle action potential) in SOD mutant mice; format: in vivo, mouse
Description: as §1, §2, §3
Electromyographic recordings were performed using a Neuromatic 2000M electromyography apparatus. During EMG the mice are anesthetized (60 mg kg-1, Imalgène®). The measured parameters are the amplitude and the latency of the compound muscle action potential (CMAP). CMAP is measured in gastrocnemius muscle after stimulation of the sciatic nerve. A reference electrode is inserted near the Achilles tendon and an active needle placed at the base of the tail. A ground needle is inserted on the lower back of the mouse. […] The amplitude (mV) and the latency of the response (ms) are measured. […]

[6] = twice daily intraperitoneally from day 60, dose not given

(R)-2-acetamide-N-benzyl-3-methoxypropionamide [SPM 927]
life-span of SOD mutant mice ([1]; FIG. 1, 3, 10, 30 mg/kg twice daily intraperitoneally from day 60 until death): dose dependently prolongs life-span
survival time after onset of symptoms ([1]; chronic treatment twice daily intraperitoneally from day 60, G1H SOD-G93A mice): prolongs survival time after symptom onset; also recorded: prolongs survival time after onset of symptoms
motor impairment (grid performance) ([2]; FIG. 2, 30 mg/kg, twice daily intraperitoneally): attenuates motor impairment
motor symptoms in the grid test [2, 6]: alleviates motor symptoms
motor symptoms in the hanging test [3]: alleviates motor symptoms
motor symptoms in the rotarod test [4]: alleviates motor symptoms
motor impairment (latency of compound muscle action potential) ([5]; FIG. 3, 10 mg/kg, twice daily intraperitoneally): attenuates motor impairment
EMG abnormalities [5, 6]: attenuates motor symptoms including abnormalities in electrophysiological recordings (EMG)
